{"source": "ChEMBL document CHEMBL1201862", "about": "“PubChem BioAssay data set” (2004)", "key": {"[1]": {"assay": "cells", "format": "functional, cell-based"}, "[2]": {"assay": "cells", "format": "functional, cell-based", "remark": "listed apart in the source"}, "[3]": {"target": "T1, Short transient receptor potential channel 4 (Mus musculus, UniProt Q9QUQ5)", "T1 sequence (Q9QUQ5 whole entry)": "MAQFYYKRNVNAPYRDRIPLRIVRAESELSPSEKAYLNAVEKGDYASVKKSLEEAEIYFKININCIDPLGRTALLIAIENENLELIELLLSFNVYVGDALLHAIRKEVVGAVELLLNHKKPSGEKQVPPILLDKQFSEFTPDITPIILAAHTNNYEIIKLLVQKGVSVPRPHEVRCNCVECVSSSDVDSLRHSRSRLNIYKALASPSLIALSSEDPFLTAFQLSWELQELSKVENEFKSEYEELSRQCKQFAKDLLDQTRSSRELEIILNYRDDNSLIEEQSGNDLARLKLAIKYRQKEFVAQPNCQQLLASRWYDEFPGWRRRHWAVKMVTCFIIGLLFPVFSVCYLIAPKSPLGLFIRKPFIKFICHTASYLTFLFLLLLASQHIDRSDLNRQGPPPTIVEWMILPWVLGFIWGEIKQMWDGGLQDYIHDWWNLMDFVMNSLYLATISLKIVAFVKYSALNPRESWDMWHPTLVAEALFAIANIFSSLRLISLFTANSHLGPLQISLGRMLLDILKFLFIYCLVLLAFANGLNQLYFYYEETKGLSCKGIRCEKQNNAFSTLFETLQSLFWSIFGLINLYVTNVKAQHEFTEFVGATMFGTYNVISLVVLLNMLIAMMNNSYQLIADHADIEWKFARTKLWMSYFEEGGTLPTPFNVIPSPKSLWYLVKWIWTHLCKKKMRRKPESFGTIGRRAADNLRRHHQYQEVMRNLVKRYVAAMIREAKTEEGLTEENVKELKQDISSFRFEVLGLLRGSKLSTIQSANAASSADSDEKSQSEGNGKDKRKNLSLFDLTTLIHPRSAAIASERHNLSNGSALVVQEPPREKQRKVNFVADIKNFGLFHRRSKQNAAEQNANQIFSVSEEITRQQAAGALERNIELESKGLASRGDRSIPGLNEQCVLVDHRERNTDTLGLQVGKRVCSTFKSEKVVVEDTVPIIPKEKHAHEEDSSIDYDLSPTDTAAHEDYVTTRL", "assay": "block of DAMGO-driven TRPC4 calcium entry – cell-based, HEK293 TRPC4/mu-opioid, Fluo-4 calcium, dose response (AID 434942);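 note: potency of inhibitors blocking the TRPC4 calcium response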", "format": "functional"}, "[4]": {"target": "T2, Carboxy-terminal domain RNA polymerase II polypeptide A small phosphatase 1 (Homo sapiens, UniProt Q9GZU7)", "T2 sequence (Q9GZU7 whole entry)": "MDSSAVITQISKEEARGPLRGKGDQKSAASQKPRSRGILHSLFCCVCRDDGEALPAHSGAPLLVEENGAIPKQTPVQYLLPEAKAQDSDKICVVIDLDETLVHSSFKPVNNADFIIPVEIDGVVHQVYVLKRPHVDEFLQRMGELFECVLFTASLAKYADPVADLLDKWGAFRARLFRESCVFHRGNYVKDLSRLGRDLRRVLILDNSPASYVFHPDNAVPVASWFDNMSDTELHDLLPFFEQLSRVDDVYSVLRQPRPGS", "assay": "CTDSP1 inhibitors, concentration-response, biochemical, absorbance readout, ultra-high-throughput screen actives (AID 540297)", "format": "functional"}, "[5]": {"assay": "cells", "format": "functional"}, "[6]": {"target": "T3, Calpain-2 catalytic subunit (Sus scrofa, UniProt P43367)", "T3 sequence (P43367 whole entry)": "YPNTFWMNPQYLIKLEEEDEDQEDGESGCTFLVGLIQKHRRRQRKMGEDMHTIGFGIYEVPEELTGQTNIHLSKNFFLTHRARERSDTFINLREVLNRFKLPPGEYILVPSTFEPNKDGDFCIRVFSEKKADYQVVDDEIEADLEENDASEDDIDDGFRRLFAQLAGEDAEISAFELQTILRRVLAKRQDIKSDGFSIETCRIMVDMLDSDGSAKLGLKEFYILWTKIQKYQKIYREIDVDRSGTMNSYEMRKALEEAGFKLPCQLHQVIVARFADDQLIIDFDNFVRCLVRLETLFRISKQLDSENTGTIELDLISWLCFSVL", "assay": "m-calpain protease blockers, concentration series – biochemical, fluorogenic peptide substrate, dose response (AID 1420)", "format": "functional"}, "[7]": {"target": "T4, Corticotropin-releasing factor receptor 2/Corticotropin-releasing factor-binding protein (Homo sapiens, UniProt P24387+Q13324)", "T4 sequence (Q13324 whole entry)": "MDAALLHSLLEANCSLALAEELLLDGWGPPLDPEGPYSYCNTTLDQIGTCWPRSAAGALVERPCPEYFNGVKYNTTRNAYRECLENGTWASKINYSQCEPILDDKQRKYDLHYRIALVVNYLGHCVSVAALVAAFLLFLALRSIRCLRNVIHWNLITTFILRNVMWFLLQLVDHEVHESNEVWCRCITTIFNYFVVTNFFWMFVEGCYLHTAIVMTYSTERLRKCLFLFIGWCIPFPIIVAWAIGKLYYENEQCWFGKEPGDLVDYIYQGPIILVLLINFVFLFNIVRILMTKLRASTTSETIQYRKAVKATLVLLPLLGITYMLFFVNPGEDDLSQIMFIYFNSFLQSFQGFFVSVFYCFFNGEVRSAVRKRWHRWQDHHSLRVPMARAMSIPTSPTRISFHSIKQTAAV", "T4 sequence (P24387 whole entry)": "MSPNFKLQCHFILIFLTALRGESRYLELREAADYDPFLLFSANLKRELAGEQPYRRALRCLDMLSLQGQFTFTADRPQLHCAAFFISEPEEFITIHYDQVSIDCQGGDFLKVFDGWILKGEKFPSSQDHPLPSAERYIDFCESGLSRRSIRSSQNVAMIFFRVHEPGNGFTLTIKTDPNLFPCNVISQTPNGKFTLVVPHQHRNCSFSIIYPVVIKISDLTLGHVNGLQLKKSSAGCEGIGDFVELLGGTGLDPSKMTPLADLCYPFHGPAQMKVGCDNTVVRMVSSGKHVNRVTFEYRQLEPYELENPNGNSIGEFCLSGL", "assay": "Dose Response confirmation of uHTS hits for small molecule antagonists of the CRF-binding protein and CRF-R2 receptor complex.", "format": "functional", "conditions": "read-out: IC50_Mean"}, "[8]": {"target": "T4, Corticotropin-releasing factor receptor 2/Corticotropin-releasing factor-binding protein", "assay": "activators of CRF receptor 2 with binding protein – uHTS hits, confirmation (AID 602473)", "format": "functional", "conditions": "read-out: EC50_Mean"}, "[9]": {"assay": "alpha-synuclein stem-loop luciferase translation blockers – H4 neuroglioma cells, luminescence, confirmation (AID 1988)", "format": "functional, cell-based"}, "[10]": {"assay": "Luminescence Cell-Based Dose Response HTS to Identify Inhibitors of 5'UTR Stem-Loop Driven Prion Protein mRNA Translation in H4 Neuroglioblastoma Cells. [Related pubchem assays: 1827 (Project Summary), 1813 (Primary HTS)]", "format": "functional"}, "[11]": {"assay": "luciferase reporter signal suppression in cells – H4 neuroglioma cells, luminescence, dose response (AID 1990)", "format": "functional, cell-based"}, "[12]": {"system": "Streptococcus sp. 'group A'", "assay": "Streptococcus pyogenes SK(-)GAS viability under kanamycin – luminescence, BacTiterGlo, confirmation, counter-screen for streptokinase expression inhibitor project, dose response (AID 1900)", "format": "functional, organism-based"}, "[13]": {"system": "Streptococcus", "assay": "GAS UMAA2166 growth inhibition – luminescence, BacTiterGlo, counter-screen for streptokinase expression inhibitor project, dose response (AID 1915);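 note: potency for reduction of bacterial viability or growth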", "format": "functional, organism-based"}}, "note": "The source made the active and inactive calls. Cut-off read from the data, not from the text of the source, for most assays here: actives have a measured EC50 and inactives only a lower limit."}
{"smiles": "O=C(NC1CCCC1)c1cc(-c2cccs2)on1", "values": [{"measurement": "EC50", "setting": "[1]", "value": "52.2 µM (active)"}, {"measurement": "EC50", "setting": "[2]", "value": "108 µM (active)"}]}
{"smiles": "Cc1ncsc1CCOC(=O)C12CC3CC(CC(C3)C1)C2", "values": [{"measurement": "EC50", "setting": "[3]", "value": "5.31 µM (active)"}]}
{"smiles": "Cc1ccc(NC(=O)c2cc(-c3ccc(C)c(C)c3O)n[nH]2)cc1C", "values": [{"measurement": "IC50", "setting": "[4]", "value": "8.08 µM (active)"}]}
{"smiles": "COc1ccc(O)c(C(=O)c2cnc3c(c2)c(=O)[nH]c(=O)n3C)c1", "values": [{"measurement": "EC50", "setting": "[3]", "value": "1.5 µM (active)"}]}
{"smiles": "O=C(OCCCCN1C(=O)c2ccccc2C1=O)c1ccc(Br)o1", "values": [{"measurement": "IC50", "setting": "[5]", "value": "46.8 µM (active)"}]}
{"smiles": "CC1CC(C)CN(C(=O)Cn2c(=O)n(CCCCC(=O)NCc3ccco3)c(=O)c3ccccc32)C1", "note": "(stereo not given)", "values": [{"measurement": "IC50", "setting": "[6]", "value": "> 50 µM (not active)"}]}
{"smiles": "CCN(CC)CCOC(=O)C(Cc1ccco1)Cc1cccc2ccccc12", "note": "(stereo not given)", "values": [{"measurement": "IC50", "setting": "[7]", "value": "> 47.1 µM (inactive)"}, {"measurement": "EC50", "setting": "[8]", "value": "> 53 µM (inactive)"}, {"measurement": "EC50", "setting": "[9]", "value": "> 120 µM (not active)"}, {"measurement": "EC50", "setting": "[1]", "value": "> 350 µM (not active)"}, {"measurement": "EC50", "setting": "[2]", "value": "> 350 µM (not active)"}, {"measurement": "EC50", "setting": "[10]", "value": "> 120 µM (not active)"}, {"measurement": "EC50", "setting": "[11]", "value": "> 120 µM (not active)"}]}
{"smiles": "C#CCSc1nnc(-c2ccc([N+](=O)[O-])cc2)o1", "values": [{"measurement": "IC50", "setting": "[5]", "value": "9.4 µM (active)"}]}
{"smiles": "Cc1cc(=O)oc2cc(NC(=O)c3ccc(OC(F)F)cc3)ccc12", "values": [{"measurement": "IC50", "setting": "[4]", "value": "10.2 µM (active)"}]}
{"smiles": "O=C(Nc1nc2ccccc2n1CCN1CCCC1)c1ccc(Cl)cc1", "values": [{"measurement": "IC50", "setting": "[5]", "value": "25.4 µM (active)"}]}
{"smiles": "O=[N+]([O-])c1cccc(/C=C/c2ccc3cccc(O)c3n2)c1", "values": [{"measurement": "EC50", "setting": "[1]", "value": "7.51 µM (active)"}, {"measurement": "EC50", "setting": "[2]", "value": "> 350 µM (not active)"}, {"measurement": "EC50", "setting": "[12]", "value": "3.36 µM (active)"}, {"measurement": "EC50", "setting": "[13]", "value": "7.37 µM (active)"}]}
{"smiles": "O=C(OCCCOC(=O)c1ccc([N+](=O)[O-])o1)c1ccc([N+](=O)[O-])o1", "values": [{"measurement": "IC50", "setting": "[5]", "value": "< 0.1 µM (active)"}]}
{"smiles": "Cn1nnnc1SCCNCc1ccccc1OCc1ccc(Cl)cc1", "values": [{"measurement": "EC50", "setting": "[3]", "value": "1.33 µM (active)"}]}
{"smiles": "CC(C)Cc1nnc(NC(=O)CCC(=O)N2CCC3(CC2)OCCO3)s1", "values": [{"measurement": "EC50", "setting": "[1]", "value": "> 350 µM (not active)"}, {"measurement": "EC50", "setting": "[2]", "value": "> 350 µM (not active)"}]}
